Test results published in paper PMC4268426 (Contraception, 2014).
“Also recorded” adds a separate entry of the source. Like-named read-outs stand apart in the source and are kept apart here.

Tests used:
[1] = human, in vivo
[2] = pharmacokinetics reported as unaffected; cited from earlier work
clinical = details: female, human, in vivo, po

In the case of C#C[C@]1(O)CC[C@H]2[C@@H]3CCC4=CC(=O)CC[C@@H]4[C@H]3CC[C@@]21C [norethindrone], the “increase in AUC0-24” value ([1]; female) was 50%, the “increase in AUC0-∞” value ([1]; female) was 35% and the Cmax ([1]; female, po, 0.35 mg) was 2.09 (1.49-3.06) ng/mL. For the same compound, the CL/F ([1]; po) was 7.59 (6.22-10.00) L/hr, the CL/F ([1]; po, 0.35 mg) was 10.35 (8.55-12.38) L/hr and the “decrease in AUC with obesity (trend)” value [2] was ~ 20%. The “decrease in Cmax with obesity (trend)” value [2] was ~ 20%, the adverse events (either group (control and treatment)) was “no reports of adverse events” and the concentration at 24 h (female, human, in vivo, po, 0.35 mg) was 0.27 ng/mL. For the same compound, the change in half-life (treatment group compared to control group) was “unaltered; also recorded: no alteration; also recorded: no change”, the Tmax (clinical) was 1.32 h and the Vd/F (clinical) was 313 L. It also gave an AUC(0-inf) (clinical; 0.35 mg) of 33.8 ng·h/mL, an AUC(0-t) (clinical; 0.35 mg) of 16.7 ng·h/mL and a Tmax (clinical; 0.35 mg) of 1.86 h. The Vd/F (clinical; 0.35 mg) was 564 L.
